How the values were obtained:
in vitro [1] = settings: rat, liver microsomes
in vitro [2] = settings: mouse, liver microsomes
in vitro [3] = settings: human, liver microsomes

- remaining at 10 min, 3 µM (in vitro [1]): 71%
- remaining at 10 min, 3 µM (in vitro [2]): 74%
- logP (physchem): 3.3
- remaining at 10 min, 3 µM (in vitro [3]): 87%
Structure (SMILES): COc1cc(N2CC=C(Oc3ccc(C4CC4)cc3)C2=O)ccc1OCCO

Reference: ChEMBL document CHEMBL5608206, “Exploring monocyclic core: Discovery of pyrrol-2-one derivatives as a new series of potent MCHR1 antagonists with in vivo efficacy” (Eur J Med Chem, 2024)
